For data set [1], the target named is Replicase polyprotein 1ab (Severe acute respiratory syndrome coronavirus 2) (UniProt P0DTD1). The settings on record: time 30.0 min.
A short description of data set [2]: Plasma protein binding in human assessed as unbound fraction. Type of data set: ADME, cell-free.
The next data set relates to Vero C1008. Kind of data set: Cytotoxicity against african green monkey Vero E6 cells by CCK-8 assay. Type of data set: toxicity, cell-based. The settings on record: chlorocebus sabaeus. (In general: Tetrazolium assays rely on reduction of a dye to a coloured formazan, in cell work by metabolically active cells.)
Data set [3] can be described thus: Kinetic solubility in phosphate buffer solution at pH 7.4. It is filed as physicochemical. The note with it: read-out: Kinetic_solubility.
Data set [4] in a line: Metabolic stability in human liver microsomes assessed as intrinsic clearance. It is filed as ADME, Microsome. For orientation: Microsomes from liver hold many membrane-bound enzymes, among them those of drug oxidation.
The nature of data set [5]: Metabolic stability in human liver microsomes assessed as half life. It is filed as ADME, Microsome.
Another data set deals with T1, Caspase-2 (Homo sapiens, UniProt P42575).
T1 sequence (P42575 whole entry): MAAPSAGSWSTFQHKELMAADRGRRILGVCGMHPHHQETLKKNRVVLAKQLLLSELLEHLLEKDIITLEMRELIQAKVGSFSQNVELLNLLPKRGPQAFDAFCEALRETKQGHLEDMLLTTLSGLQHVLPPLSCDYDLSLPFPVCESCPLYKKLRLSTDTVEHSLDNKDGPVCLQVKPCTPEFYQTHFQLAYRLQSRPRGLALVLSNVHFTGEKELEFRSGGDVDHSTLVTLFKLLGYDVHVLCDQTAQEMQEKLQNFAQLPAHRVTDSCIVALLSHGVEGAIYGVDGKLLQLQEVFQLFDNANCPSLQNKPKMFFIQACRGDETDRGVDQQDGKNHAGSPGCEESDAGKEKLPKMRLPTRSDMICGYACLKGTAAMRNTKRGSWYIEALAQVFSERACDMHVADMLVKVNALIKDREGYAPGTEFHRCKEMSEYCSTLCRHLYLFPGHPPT
Kind of data set: Inhibition of human Caspase 2 using fluorogenic substrate by FRET-based assay.

The next data set addresses Procathepsin L (Homo sapiens, UniProt P07711). As to the kind of experiment: Inhibition of human Cathepsin L using fluorogenic substrate by FRET-based assay.
A further data set addresses Prothrombin (Homo sapiens, UniProt P00734). As to the kind of experiment: Inhibition of human Thrombin using fluorogenic substrate by FRET-based assay.
The target of the next data set is Cathepsin B (Homo sapiens, UniProt P07858). As to the kind of experiment: Inhibition of human Cathepsin B using fluorogenic substrate by FRET-based assay.
Another data set has as its target Cathepsin D (Homo sapiens, UniProt P07339). Kind of data set: Inhibition of human Cathepsin D using fluorogenic substrate by FRET-based assay.

This note sets out measurements from ChEMBL document CHEMBL5335781, “Discovery of quinazolin-4-one-based non-covalent inhibitors targeting the severe acute respiratory syndrome coronavirus 2 main protease (SARS-CoV-2 Mpro)” (Eur J Med Chem, 2023).

In brackets after ≈: the same amount, converted by molar mass. Activity calls are given as the source filed them. No cut-off for these calls is given here. Bounds are passed on as bounds.

Sequence of Cathepsin D (P07339 65-162 limits assumed): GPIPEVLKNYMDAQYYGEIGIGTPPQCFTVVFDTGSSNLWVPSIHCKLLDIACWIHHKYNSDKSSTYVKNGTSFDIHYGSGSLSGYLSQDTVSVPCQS
Sequence of Cathepsin D (P07339 169-412 limits assumed): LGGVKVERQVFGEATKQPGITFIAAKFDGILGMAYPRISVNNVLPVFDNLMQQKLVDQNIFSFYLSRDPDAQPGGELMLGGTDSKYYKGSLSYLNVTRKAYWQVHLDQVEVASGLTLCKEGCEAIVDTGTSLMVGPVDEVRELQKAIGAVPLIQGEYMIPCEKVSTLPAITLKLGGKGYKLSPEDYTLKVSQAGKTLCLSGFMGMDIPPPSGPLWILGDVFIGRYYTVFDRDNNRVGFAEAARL
Sequence of Procathepsin L (P07711 whole entry): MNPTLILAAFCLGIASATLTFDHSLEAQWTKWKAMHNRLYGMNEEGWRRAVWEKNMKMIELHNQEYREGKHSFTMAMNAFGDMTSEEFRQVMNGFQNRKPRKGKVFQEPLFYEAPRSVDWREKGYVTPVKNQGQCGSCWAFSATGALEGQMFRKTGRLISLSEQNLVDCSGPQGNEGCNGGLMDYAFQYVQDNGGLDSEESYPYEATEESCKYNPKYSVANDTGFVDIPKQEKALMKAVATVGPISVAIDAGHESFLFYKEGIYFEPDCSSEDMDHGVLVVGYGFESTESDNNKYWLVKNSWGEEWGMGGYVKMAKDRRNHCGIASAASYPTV

With `Cc1cc(-n2c(CC(C)C)nc3cc(O)c(O)c(O)c3c2=O)ccc1F`, the inhibition entry in data set [1] is “Active”. The Fu in data set [2] amounted to 3.17%. Besides, the CC50 in the data set on Vero C1008 is greater than 50 µM.

Consider `CC(C)Cc1nc2cc(O)c(O)c(O)c2c(=O)n1-c1ccccc1`, for which the inhibition result in [1] was “Active”. Moreover, in [3], the solubility kinetic turned out to be 156 µM (≈ 50.9 µg/mL). Further, the Fu in data set [2] turned out to be 2.61%. In addition, the CLH in [4] was 68.34 µL/min/mg. Also, the t1/2 in [5] stood at 20.28 min. This compound showed a CC50 in the data set with Vero C1008 greater than 50 µM.

With `O=c1c2c(O)c(O)c(O)cc2nc(Cc2ccccc2)n1-c1ccccc1`, in data set [1], the inhibition result was “Active”.

Turning to `O=c1cc(-c2ccccc2)oc2cc(O)c(O)c(O)c12` [BAICALEIN], in data set [3], the solubility kinetic was found to be 112 µM (≈ 30.3 µg/mL). The Fu in data set [2] came to 0.93%. Also, the CLH in data set [4] is 333.05 µL/min/mg. Further, in data set [5], the t1/2 was 4.16 min. Also, the CC50 in the data set with Vero C1008 was greater than 50 µM.

For `O=c1c2c(O)c(O)c(O)cc2nc(-c2ccccc2)n1-c1ccccc1`, the inhibition entry in data set [1] was “Active”. Besides, the half-maximal inhibitory concentration (IC50) against Caspase-2, at Procathepsin L, at Prothrombin, against Cathepsin B and against Cathepsin D was greater than 10 µM in each case. For the same compound, the solubility kinetic in [3] came out at 179 µM (≈ 62.1 µg/mL). For the same compound, the Fu in [2] is reported as 0.7%. Besides, the CLH in [4] amounted to 108.68 µL/min/mg. In addition, the t1/2 in [5] turned out to be 12.75 min. Besides, the CC50 in the data set with Vero C1008 was greater than 50 µM.

For `O=c1c2c(O)c(O)c(O)cc2nc(-c2ccccc2)n1C1CCCC1`, the inhibition result in [1] was “Active”.

One may read the CC50 as the concentration at which the toxic effect on the cells reaches its halfway point. One may read the IC50 as the concentration needed to halve the response being measured.
